Test results from patent US11072582B2 (Epics Therapeutics, priority 2009, dated 2021).

System: adipocytes isolated from normal rat
Assay: Lipolysis assay in isolated adipocytes (isoprenaline-induced)
Format: cell-based
Details: 30 μM, FIG. 1
Procedure: Animals are killed by cervical dislocation and epididymal fat pads are removed and digested in collagenase buffer at 37° C./120 rpm for approximately 50 minutes.
After the pre-treatment, Isoprenaline (1 μM) is added to the adipocytes followed by 30 min incubation at 37° C./150 rpm. The reactions are put on ice and the buffer is assayed spectrophotometrically for the production of NADH^+ from glycerol breakdown in reactions catalyzed by glycerol kinase and glycero 1-3-phosphate dehydrogenase and/or Non Esterified Fatty Acid (NEFA). Each data point is investigated in triplicates in two independent experiments.

## Cc1ccc(-c2ccc(C(=O)N3[C@@H](c4ccccc4Cl)CC[C@H]3C(=O)O)cc2)cc1 [Compound 5]
  inhibition of isoprenaline-induced lipolysis: inhibit isoprenaline-induced lipolysis
